In US20240285770A1, “PRECIPITATION SUPPRESSING AGENT” (Nippon Shinyaku Co., Ltd., priority 2021, published 2024):

Experiments:
kidney [1] = type: in vivo, C57BL/6J male mice; conditions: sucrose 20 to 100 mg/mL co-administered with PMO No. 8 50 mg/mL, 10 mL/kg tail vein, mice
Experimental: The antisense oligomer of PMO No. 8 was dissolved in water for injection comprising 0.9% sodium chloride, and a solution obtained by dissolving sucrose (manufactured by FUJIFILM Wako Pure Chemical Corporation) with physiological saline was added thereto to prepare a dosing solution comprising each of the antisense oligomer and sucrose at the concentrations shown in Tables 12 and 13. The obtained dosing solutions were administered into the tail vein of 6-week-old C57BL/6J male mice (N=3) at the amount of dosing solution shown in Table 12 (10 mL/kg). Next day, some mice to which the antisense oligomer of PMO No. 8 had been administered were subjected to autopsy, and formalin-fixed paraffin-embedded samples of the respective kidneys were prepared. Sections obtained by slicing the samples were subjected to hematoxylin-eosin staining and a histopathological test of the sections was performed.

kidney [2] = type: in vivo, C57BL/6J male mice; conditions: sucrose 200 mg/mL co-administered with PMO No. 11 130 mg/mL, 20 mL/kg tail vein, mice
Experimental: The antisense oligomer of PMO No. 11 was dissolved in physiological saline to prepare a control dosing solution comprising the antisense oligomer at the concentration shown in Table 14 and comprising no sucrose. Next, the antisense oligomer of PMO No. 11 and sucrose were dissolved in physiological saline to prepare dosing solutions comprising the antisense oligomer and sucrose at the concentrations shown in Table 14. The obtained dosing solutions were administered into the tail vein of 6-week-old C57BL/6J male mice (N=5) at 20 mL/kg. Next day, the mice were subjected to autopsy, and formalin-fixed paraffin-embedded samples of the respective kidneys were prepared. Sections obtained by slicing the samples were subjected to hematoxylin-eosin staining and a histopathological test of the sections was performed. Compared to the mice to which the control dosing solution comprising no sucrose has been administered, it was determined that the precipitation was suppressed in a case where there was improvement in the findings on the histopathological test of the kidney of the mice to which the dosing solution comprising sucrose has been administered.

[3] = Precipitation suppression with sucrose: absorbance at 620 nm of antisense oligomer in KCl/NaCl solution assumed to be in urine; type: physicochemical
Experimental: The presence or absence of the precipitation suppressing effects can be determined by adding the antisense oligomer and the precipitation suppressing agent in a solvent simulating urine and examining as described in Examples whether or not the precipitation suppressing agent reduces an increase in absorbance caused by precipitation of the antisense oligomer. For example, after the antisense oligomer and the precipitation suppressing agent are added to the solvent (e.g., 5 minutes later, 10 minutes later, 15 minutes later, 20 minutes later, 25 minutes later, 30 minutes later, 40 minutes later, 50 minutes later, 60 minutes later, 70 minutes later, 80 minutes later, or 90 minutes later), the absorbance can be determined under the conditions of 37° C. At this time, compared to a case of adding no precipitation suppressing agent, it can be determined to be effective in suppressing precipitation when a time until the precipitation is observed (until the increased absorbance at 620 nm is observed) or the absorbance at 620 nm are reduced, for example, by 5% or more, 10% or more, 20% or more, 30% or more, 40% or more, or 50% or more in the case of adding the precipitation suppressing agent. […] The absorbance at 620 nm of the solution thus mixed was measured using a plate reader, Infinite F200 Pro (manufactured by Tecan Group Ltd.) under heating conditions of 37° C. […]

[4] = Precipitation suppression with trehalose: absorbance at 620 nm of antisense oligomer in KCl/NaCl solution assumed to be in urine; type: physicochemical; conditions: Example 7: trehalose 45 to 180 mg/mL with PMO Nos. 1, 2, 7, and 8, 37° C., Tables 18 to 21
Experimental: The presence or absence of the precipitation suppressing effects can be determined by adding the antisense oligomer and the precipitation suppressing agent in a solvent simulating urine and examining as described in Examples whether or not the precipitation suppressing agent reduces an increase in absorbance caused by precipitation of the antisense oligomer. For example, after the antisense oligomer and the precipitation suppressing agent are added to the solvent (e.g., 5 minutes later, 10 minutes later, 15 minutes later, 20 minutes later, 25 minutes later, 30 minutes later, 40 minutes later, 50 minutes later, 60 minutes later, 70 minutes later, 80 minutes later, or 90 minutes later), the absorbance can be determined under the conditions of 37° C. At this time, compared to a case of adding no precipitation suppressing agent, it can be determined to be effective in suppressing precipitation when a time until the precipitation is observed (until the increased absorbance at 620 nm is observed) or the absorbance at 620 nm are reduced, for example, by 5% or more, 10% or more, 20% or more, 30% or more, 40% or more, or 50% or more in the case of adding the precipitation suppressing agent. […]

Row | Structure (SMILES) | precipitation suppressing effect in kidney (amount of precipitates, basophilic substances in lumens of renal tubules) (kidney [1]) | precipitation suppression in kidney (improvement in findings on histopathological test) (kidney [2]) | precipitation suppressing effect on antisense oligomers ([3]; Example 3: sucrose 45 to 270 mg/mL with PMO Nos. 8, 9, 10, 11, KCl and NaCl, 37° C., Tables 4 to 11) | precipitation suppressing effect on antisense oligomers ([3]; Example 6: sucrose 45 to 135 mg/mL with PMO Nos. 1, 2, and 7, 37° C., Tables 15 to 17) | precipitation suppressing effect on antisense oligomers [4]
1 | OC[C@H]1O[C@@](CO)(O[C@H]2O[C@H](CO)[C@@H](O)[C@H](O)[C@H]2O)[C@@H](O)[C@@H]1O [sucrose] | amount of precipitates decreased according to the concentrations of sucrose | confirmed to suppress precipitation | suppress the precipitation of antisense oligomers | suppress the precipitation of antisense oligomers | –
2 | OC[C@H]1O[C@H](O[C@H]2O[C@H](CO)[C@@H](O)[C@H](O)[C@H]2O)[C@H](O)[C@@H](O)[C@@H]1O [trehalose] | – | – | – | – | suppress the precipitation of antisense oligomers
